Data set [1] concerns the target T1, PGD2 receptor (Homo sapiens, UniProt Q13258).
T1 construct: A suspension adjusted to contain the platelets at a final concentration of 5×10^8/ml was warmed at 37° C; endogenous in cells; host or cells: washed human platelets from a healthy volunteer
T1 sequence (Q13258 1-359): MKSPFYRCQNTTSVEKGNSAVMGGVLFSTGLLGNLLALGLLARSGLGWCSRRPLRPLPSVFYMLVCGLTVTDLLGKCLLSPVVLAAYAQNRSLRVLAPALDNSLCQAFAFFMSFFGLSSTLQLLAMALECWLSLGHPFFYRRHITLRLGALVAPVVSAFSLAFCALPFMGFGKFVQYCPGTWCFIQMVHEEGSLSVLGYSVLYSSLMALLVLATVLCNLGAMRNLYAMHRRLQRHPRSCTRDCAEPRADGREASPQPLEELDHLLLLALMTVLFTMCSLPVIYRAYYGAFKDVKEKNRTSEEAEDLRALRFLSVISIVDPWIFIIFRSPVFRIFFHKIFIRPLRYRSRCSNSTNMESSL
Description: Binding activity to PGD2 receptor ([3H]PGD2, human platelet membrane fraction). The conditions noted are these: human platelet membrane fraction; read-out: Binding activity to PGD2 receptor in human platelet membrane fraction IC50. On the procedure:
Experiment 1 Binding Activity to PGD2 Receptor
(§1) (1) Preparation of Human Platelet Membrane Fraction
Blood was collected using a plastic syringe containing 3.8% sodium citrate from the vein of healthy volunteers (adult male and female), then put into a plastic test tube and mixed by slow-reversion. The sample was then centrifuged at 1800 rpm, for 10 min at room temperature, and the supernatant containing PRP (platelet-rich plasma) was collected. The PRP was re-centrifuged at 2300 rpm, for 22 min at room temperature to obtain platelets. The platelets were homogenized using a homogenizer (Ultra-Turrax) followed by centrifugation 3 times at 20,000 rpm, 10 min at 4° C. to obtain a platelet membrane fraction. After protein determination, the membrane fraction was adjusted to 2 mg/ml and preserved in a refrigerator at −80° C. until using for the binding test.
(2) Binding to PGD2 Receptor
To a binding-reaction solution (50 mM Tris/HCl, pH 7.4, 5 mM MgCl2) (0.2 ml) were added the human platelet membrane fraction (0.1 mg) and 5 nM [^3H]PGD2 (115 Ci/mmol), and the mixture was reacted at 4° C. for 90 min. After the reaction, the mixture was filtered through a glass fiber filter paper and washed several times with cooled physiological saline, then the radioactivity retained on the filter paper was measured. The specific-binding ratio was calculated by subtracting the non-specific binding ratio which is the radioactivity similarly measured in the presence of 10 μM PGD2 from the total binding. The inhibitory activity of each compound was expressed as the concentration required for 50% inhibition (IC50), which was determined by depicting a substitution curve by plotting the binding ratio (%) in the presence of each compound, where the binding ratio in the absence of a test compound is 100%.

The target of another data set is T2, TXA2 receptor (Homo sapiens, UniProt P21731).
T2 construct: The human platelet membrane fraction was prepared in accordance with Experiment 1 (1); from tissue; host or cells: human platelet membrane fraction from blood of healthy volunteers
T2 sequence (P21731 1-343): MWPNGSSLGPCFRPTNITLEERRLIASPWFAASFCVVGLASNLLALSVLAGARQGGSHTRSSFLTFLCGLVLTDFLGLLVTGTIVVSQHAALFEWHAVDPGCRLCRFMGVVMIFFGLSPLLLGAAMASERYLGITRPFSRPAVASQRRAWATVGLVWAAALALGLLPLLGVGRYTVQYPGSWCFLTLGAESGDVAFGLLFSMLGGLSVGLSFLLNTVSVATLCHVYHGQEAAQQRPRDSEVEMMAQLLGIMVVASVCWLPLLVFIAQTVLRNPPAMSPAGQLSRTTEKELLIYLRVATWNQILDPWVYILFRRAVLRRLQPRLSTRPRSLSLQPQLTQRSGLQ
Description: Binding activity to TXA2 receptor ([3H](+)-S-145 sodium salt, human platelet membrane fraction). The conditions noted are these: human platelet membrane fraction; 2 nM [3H](+)-S-145 sodium salt; read-out: Binding activity to TXA2 receptor in human platelet membrane fraction IC50. The protocol: Experiment 2 Binding Activity to TXA2 Receptor
as §1
The human platelet membrane fraction was prepared in accordance with Experiment 1 (1).
(2) Binding to TXA2 Receptor
To a binding-reaction solution (50 mM Tris/HCl, pH 7.4, 10 mM MgCl2) (0.2 ml) were added the human platelet membrane fraction (0.05 mg) and 2 nM Sodium [^3H](+)-(5Z)-7-[3-endo-[(phenylsulfonyl)amino]bicyclo[2.2.1]hept-2-exo-yl]heptenoate (Japanese Patent Publication (Kokoku) No.79060/1993, hereinafter referred to as (+)-S-145 sodium salt) (26.4 Ci/mmol), and the mixture was reacted at room temperature for 90 min. After the reaction, the resultant mixture was filtered through a glass fiber filter paper and washed several times with cooled physiological saline, then the radioactivity retained on the filter paper was measured. The specific-binding ratio was calculated by subtracting the non-specific binding ratio (the radio activity similarly determined in the presence of 10 μM (+)-S-145 sodium salt) from the total binding. The inhibitory activity of each compound was expressed as the concentration required for 50% inhibition (IC50), which was determined by depicting a substitution curve by plotting the binding ratio (%) in the presence of each compound, where the binding ratio in the absence of a test compound is 100%.

In data set [2] the target is T1, PGD2 receptor. The data set can be described thus: Antagonistic activity against PGD2 receptor using human platelet (inhibition of PGD2-induced cAMP increase). It is filed as cell-based. The conditions noted are these: human platelet; 0.1 μM PGD2; read-out: Inhibitory activity for the increase of cAMP caused by PGD2 in human platelet IC50. On the procedure: Experiment 3 Evaluation of Antagonistic Activity Against PGD2 Receptor
Receptor Using Human Platelet
Peripheral blood was collected from a healthy volunteer using a syringe in which 1/9 volume of a citric acid/dextrose solution was previously added. The sample was subjected to centrifugation at 1200 rpm for 10 min to obtain the supernatant (PRP: platelet rich plasma). The resultant PRP was washed 3 times with a washing buffer and the number of platelets was counted with a micro cell counter. A suspension adjusted to contain the platelets at a final concentration of 5×10^8/ml was warmed at 37° C., then subjected to the pre-treatment with 3-isobutyl-1-methylxanthine (0.5 mM) for 5 min. To the suspension was added a test compound diluted at various concentration, and 10 minutes later, 0.1 μM PGD2 was added to induce the reaction 2 minutes later, hydrochloric acid was added to terminate the reaction. The platelet was destroyed with an ultrasonic homogenizer. After centrifugation, the cAMP in the supernatant was determined by radioimmunoassay. PGD2 receptor antagonism of a drug was evaluated as follows: the inhibition rate regarding cAMP increased by the addition of PGD2 was determined at each concentration, and the concentration of the drug required for 50% inhibition (IC50) was calculated.

Data set [3] in a line: Change of plasma concentration of drug in rat (half life of the disappearance after i.v. administration). Type of data set: in vivo. To be noted: Jcl-SD male rats, 0.5 to 2 mg/kg intravenously, unchanged compound. The protocol:
Experiment 4 Change of Plasma Concentration of Drug in Rat
Compound (0.5 to 2 mg/kg) was administered intravenously to Jcl-SD male rats.

With `O=C(O)CCC/C=C\C[C@H]1[C@@H]2CC[C@@H](C2)[C@@H]1NC(=O)c1ccc(S(=O)(=O)n2cccc2)s1` [I-1], the IC50 on PGD2 receptor [1] came to 4.3 nM; on TXA2 receptor, 3 nM; at PGD2 receptor [2] it was 1.3 nM. In data set [3], the “half life of the disappearance” value is reported as 9.4 min.
Take `O=C(O)COCCCC[C@H]1[C@@H]2CC[C@@H](C2)[C@@H]1NC(=O)c1ccc(S(=O)(=O)n2cccc2)s1` [I-7M-1a]: the “half life of the disappearance” value in data set [3] is given as 26.3 min.
With `O=C(O)CCC/C=C\C[C@H]1[C@@H]2CC[C@@H](C2)[C@@H]1NC(=O)c1ccc(Cc2cc3ccccc3o2)s1` [I-136], the figures for the IC50 on PGD2 receptor [1], at TXA2 receptor and on PGD2 receptor [2] were 23 nM, 16 nM and 15 nM, respectively.
For `O=C(O)CCC/C=C\C[C@H]1[C@@H]2CC[C@@H](C2)[C@@H]1NC(=O)c1csc2c(Cc3ccccc3)cccc12` [I-143], the IC50 at PGD2 receptor [1] came to 2.7 nM; on TXA2 receptor, 28 nM; at PGD2 receptor [2] it was 1.9 nM. Moreover, in data set [3], the “half life of the disappearance” value was determined as 4.7 min.
On to `O=C(O)CCC/C=C\C[C@H]1[C@@H]2CC[C@@H](C2)[C@@H]1NC(=O)c1ccc(Cc2ccc(OCc3ccccc3)c(O)c2)s1` [I-146], for which the IC50 amounted to 44 nM at PGD2 receptor [1], 19 nM on TXA2 receptor and 73 nM at PGD2 receptor [2].
As to `O=C(O)CCC/C=C\C[C@H]1[C@@H]2CC[C@@H](C2)[C@@H]1NC(=O)c1cc2ccc(Cc3ccccc3)cc2s1` [I-160], the figures for the IC50 on PGD2 receptor [1], at TXA2 receptor and on PGD2 receptor [2] were 28 nM, 20 nM and 85 nM, respectively.
For the compound `O=C(O)CCC/C=C\C[C@H]1[C@@H]2CC[C@@H](C2)[C@@H]1NC(=O)c1csc2c(Cc3cccs3)cccc12` [I-168], the IC50 on PGD2 receptor [1] came to 0.46 nM; on TXA2 receptor, 34 nM; at PGD2 receptor [2], 29 nM.
With `O=C(O)CCC/C=C\C[C@H]1[C@@H]2CC[C@@H](C2)[C@@H]1NC(=O)c1csc2c(Cc3ccsc3)cccc12` [I-169], the IC50 on PGD2 receptor [1] was determined as 0.61 nM; at TXA2 receptor, 32 nM; on PGD2 receptor [2], 26 nM.
`O=C(O)CCC/C=C\C[C@H]1[C@@H]2CC[C@@H](C2)[C@@H]1NC(=O)c1csc2c(Cc3ccoc3)cccc12` [I-170]: the figures for the IC50 on PGD2 receptor [1], on TXA2 receptor and on PGD2 receptor [2] were 0.92 nM, 27 nM and 17 nM, respectively.
Regarding `O=C(O)CCC/C=C\C[C@H]1[C@@H]2CC[C@@H](C2)[C@@H]1NC(=O)c1ccc(Cc2csc3ccccc23)s1` [I-182], the values for the IC50 at PGD2 receptor [1], on TXA2 receptor and at PGD2 receptor [2] were 61 nM, 28 nM and 11 nM, respectively.
Regarding `CC1(C)[C@H]2C[C@H](C/C=C\CCCC(=O)O)[C@@H](NC(=O)c3ccc(S(=O)(=O)n4cccc4)s3)[C@@H]1C2` [II-1], the half-inhibitory concentration (IC50) on PGD2 receptor [1] turned out to be 2 nM; on TXA2 receptor, 12 nM; at PGD2 receptor [2] it was 11 nM.
For `CC1(C)[C@H]2C[C@H](C/C=C\CCCC(=O)O)[C@@H](NC(=O)c3ccc(S(=O)(=O)c4ccccc4)s3)[C@@H]1C2` [II-37], the figures for the IC50 on PGD2 receptor [1], on TXA2 receptor and on PGD2 receptor [2] were 26 nM, 4.3 nM and 35 nM, respectively.
In the case of `CC1(C)[C@H]2C[C@H](C/C=C\CCCC(=O)O)[C@@H](NC(=O)c3ccc(S(=O)(=O)c4cccs4)s3)[C@@H]1C2` [II-47], the IC50 amounted to 0.96 nM on PGD2 receptor [1], 3.6 nM on TXA2 receptor and 4 nM on PGD2 receptor [2].
Consider `Cc1cccn1S(=O)(=O)c1ccc(C(=O)N[C@@H]2[C@@H](C/C=C\CCCC(=O)O)C[C@H]3C[C@@H]2C3(C)C)s1` [II-55], for which the IC50 stood at 1.5 nM at PGD2 receptor [1], 4.4 nM on TXA2 receptor and 3.9 nM at PGD2 receptor [2].
Take `CC1(C)[C@H]2C[C@H](C/C=C\CCCC(=O)O)[C@@H](NC(=O)c3ccc(Sc4cccs4)s3)[C@@H]1C2` [II-59]: the IC50 came to 0.1 nM at PGD2 receptor [1], 14 nM on TXA2 receptor and 24 nM at PGD2 receptor [2]. Also, in data set [3], the “half life of the disappearance” value is given as 11.0 min.
With `Cc1cc(S(=O)(=O)c2ccc(C(=O)N[C@@H]3[C@@H](C/C=C\CCCC(=O)O)C[C@H]4C[C@@H]3C4(C)C)s2)cs1` [II-101], the figures for the concentration for half-maximal inhibition (IC50) at PGD2 receptor [1], at TXA2 receptor and on PGD2 receptor [2] were 72 nM, 4 nM and 45 nM, respectively.
In the case of `CC1(C)[C@H]2C[C@H](C/C=C\CCCC(=O)O)[C@@H](NC(=O)c3ccc(S(=O)(=O)c4cccc(O)c4)s3)[C@@H]1C2` [II-117], the half-maximal inhibitory concentration (IC50) was 22 nM on PGD2 receptor [1], 2.6 nM on TXA2 receptor and 24 nM on PGD2 receptor [2].
On to `COc1ccccc1Cc1ccc(C(=O)N[C@@H]2[C@@H](C/C=C\CCCC(=O)O)C[C@H]3C[C@@H]2C3(C)C)s1` [II-126], for which the IC50 was determined as 4.6 nM at PGD2 receptor [1], 45 nM at TXA2 receptor and 4 nM at PGD2 receptor [2].
Turning to `CC1(C)[C@H]2C[C@H](C/C=C\CCCC(=O)O)[C@@H](NC(=O)c3ccc(Cc4cccc(-c5ccccc5)c4)s3)[C@@H]1C2` [II-138], the figures for the IC50 at PGD2 receptor [1], at TXA2 receptor and on PGD2 receptor [2] were 32 nM, 72 nM and 25 nM, respectively.
